Test results published in US20130337564A1, “Treatment of Pluripotent Cells” (Janssen Biotech, Inc., priority 2012, published 2013).

Experiments:
Assay type in all cases: cell-based
[1] = test system: cells expressing pluripotency markers derived from human embryonic stem cells; assay: MTS viability (toxicity) assay of cells expressing pluripotency markers; parameters: Raw data (duplicate), first replicate / Average: unit not given here; conditions: for viability at 10 µM: Homo sapiens, Embryonic stem cell, viability of cells expressing pluripotency markers, relative to control; for Raw data (duplicate), first replicate / Raw data (duplicate), second replicate: MTS viability assay raw reading; for Raw data (duplicate), first replicate: replicate 1; for Raw data (duplicate), second replicate: replicate 2; for Average: average of duplicate MTS raw readings
Protocol: Derivation and maintenance of cells expressing pluripotency makers was conducted as has been described in Example 2. Cells were grown in DMEM:F12 supplemented with 2% FCS (Invitrogen), 100 ng/ml Activin A, 20 ng/ml Wnt-3a, and 50 ng/ml IGF (R&D Biosystems). Cells were seeded at a density of 10,000 cells/cm^2 on Falcon polystyrene flasks and grown in monolayer culture at 37° C., 5% CO2, low oxygen. After reaching 60-70% confluence, cells were passed by washing the monolayer with PBS and incubating with TrypLE (Invitrogen) for 3-5 minutes to allow detachment and single cell dispersal.
Screening was conducted using test compounds from a proprietary library of small molecules selected for their ability to inhibit GSK-3B enzyme activity. Compounds from this library were made available as 1 mM stocks, in a 96-well plate format in 50 mM HEPES, 30% DMSO. For assay, cells expressing pluripotency markers were washed, counted, and plated in normal culture medium at a seeding density of 20,000 cells per well in 96-well clear-bottom, dark-well plates (Costar). This seeding density was previously determined to yield optimal monolayer formation in overnight culture. On the following day, culture medium was removed, cell monolayers were rinsed three times with PBS, and test compounds were added to the wells in 80 μl aliquots, each diluted into assay medium at a final assay concentration of 10 μM. On day 2 of the assay, medium was removed from each well and replaced with a fresh aliquot of test compounds diluted into assay medium. Assay medium on days 1 and 2 of culture consisted of DMEM:F12 supplemented with 0.5% FCS and 100 ng/ml Activin A. On days 3 and 4 of culture, medium was removed from each well and replaced with DMEM:F12 supplemented with 2% FCS and 100 ng/ml Activin A (no test compound). On day 4 of assay, 15 μl of MTS (Promega) was added to each well and plates were incubated at 37° C. for 1.5 to 4 hours prior to reading optical density at 490 nm on a SpectraMax (Molecular Devices) instrument. Statistical measures consisting of mean, standard deviation, and coefficient of variation were calculated for each duplicate set. Toxicity was calculated for each test well relative to a positive control (wells treated with Activin A and Wnt3a on days 1 and 2 of culture).
A larger proportion of the compounds have minimal or no measurable toxicity in this cell-based assay.
A small panel of select compounds was repeat tested over a narrow dose titration range, again using cells expressing pluripotency markers in a similar assay as described above.

[2] = test system: human embryonic stem cells (H9 line); assay: High content screening assay: cell number (proliferative response)
Protocol: (§1) Maintenance of human embryonic stem cells (H9 line) was conducted as described in Example 1. Colonies of cells were maintained in an undifferentiated, pluripotent state with passage on average every four days. Passage was performed by exposing cell cultures to a solution of collagenase (1 mg/ml; Sigma-Aldrich) for 10 to 30 minutes at 37° C. followed by gentle scraping with a pipette tip to recover cell clusters. Clusters were allowed to sediment by gravity, followed by washing to remove residual collagenase. Cell clusters were split at a 1:3 ratio for routine maintenance culture or a 1:1 ratio for immediate assay. The human embryonic stem cell lines used were maintained at passage numbers less than passage 50 and routinely evaluated for normal karyotypic phenotype and absence of mycoplasma contamination.
(§2) Cell clusters used in the assay were evenly resuspended in normal culture medium and plated onto MATRIGEL-coated 96-well Packard VIEWPLATES (PerkinElmer) in volumes of 100 μA/well. MEF conditioned medium supplemented with 8 ng/ml bFGF was used for initial plating and recovery. Daily feeding was conducted by aspirating spent culture medium from each well and replacing with an equal volume of fresh medium. Plates were maintained at 37° C., 5% CO2 in a humidified box throughout the duration of assay.
(§3) Screening was conducted using test compounds from a proprietary library of small molecules selected for their ability to inhibit GSK-3B enzyme activity. Compounds from this library were made available as 1 mM stocks, in a 96-well plate format in 50 mM HEPES, 30% DMSO. Screening compounds were tested in triplicate or duplicate sets. Primary screening assays were initiated by aspirating culture medium from each well followed by three washes in PBS to remove residual growth factors and serum. Test volumes of 80 to 100 μl per well were added back containing DMEM:F12 base medium (Invitrogen) supplemented with 0.5% FCS (HyClone) and 100 ng/ml activin A (R&D Biosystems) plus 10 μM test compound. Positive control wells contained the same base medium, substituting 10-20 ng/ml Wnt3a (R&D Biosystems) for the test compound. Negative control wells contained base medium with 0.5% FCS and activin A alone (AA only) or alternatively, 0.5% FCS without activin A or Wnt3a (no treatment). Wells were aspirated and fed again with identical solutions on day 2 of assay. On days 3 and 4, all assay wells were aspirated and converted to DMEM:F12 supplemented with 2% FCS and 100 ng/ml activin A (without test compound or Wnt3a); parallel negative control wells were maintained in DMEM:F12 base medium with 2% FCS and activin A (AA only) or alternatively, 2% FCS without activin A (no treatment).
(§4) At the end of culture, cells in 96-well plates were fixed with 4% paraformaldehyde at room temperature for 20 minutes, washed three times with PBS, and then permeabilized with 0.5% Triton X-100 for 20 minutes at room temperature. Alternatively, cells were fixed with ice cold 70% ethanol overnight at −20° C., washed three times with PBS, and then permeabilized with Triton X-100 for 5 minutes at 4° C. After fixing and permeabilizing, cells were washed again three times with PBS and then blocked with 4% chicken serum (Invitrogen) in PBS for 30 minutes at room temperature. Primary antibodies (goat anti-human Sox17 and goat anti-human HNF-3beta; R&D Systems) were diluted 1:100 in 4% chicken serum and added to cells for one hour at room temperature. Alexa Fluor 488 conjugated secondary antibody (chicken anti-goat IgG; Molecular Probes) was diluted 1:200 in PBS and added after washing the cells three times with PBS. To counterstain nuclei, 5 mM Draq5 (Alexis Biochemicals) was added for five minutes at room temperature. Cells were washed once with PBS and left in […] PBS for imaging.
(§5) Cells were imaged using an IN Cell Analyzer 1000 (GE Healthcare) utilizing the 51008bs dichroic for cells stained with Draq5 and Alexa Fluor 488. […]

[3] = test system: HNF-3beta expression in human embryonic stem cells (H9 line); assay: High content screening assay: HNF-3beta protein expression (differentiation)
Protocol: as §1, §2, §3, §4, §5

[4] = test system: Sox17 expression in human embryonic stem cells (H9 line); assay: High content screening assay: Sox17 protein expression (differentiation); conditions: for fold induction at 10 µM: Homo sapiens, Embryonic stem cell, 10 μM test compound with 100 ng/ml activin A on days 1-2, H9, total intensity by IN Cell Analyzer, strong and moderate hits, read-out: SOX17 Expression, Fold over Wnt 3a/AA control
Protocol: as §1, §2, §3, §4, §5

[5] = test system: human embryonic stem cells (H9 or H1 lines); assay: Plate reader (MTS) proliferation assay
Protocol: Maintenance of human embryonic stem cells (H9 or H1 lines) was conducted as described in Example 1. Colonies of cells were maintained in an undifferentiated, pluripotent state with passage on average every four days. Passage was performed by exposing cell cultures to a solution of collagenase (1 mg/ml; Sigma-Aldrich) for 10 to 30 minutes at 37° C. followed by gentle scraping with a pipette tip to recover cell clusters. Clusters were allowed to sediment and washed to remove residual collagenase. Cell clusters were split at a ratio of 1:3 monolayer area for routine culture or a 1:1 ratio for immediate assay. The human embryonis stem cell lines used for these examples were maintained at passage numbers less than 50 and routinely evaluated for normal karyotypic phenotype as well as absence of mycoplasm contamination.
as §2, with “in” for “in the”, “into” for “onto”, “μl/well.” for “μA/well.”, “bFGF)” for “bFGF”, “C.” for “C., 5% CO2”, “box, 5% CO2” for “box”
Primary screening assays were initiated by aspirating culture medium from each well followed by three washes in PBS to remove residual growth factors and serum. Test volumes of 80-100 μl per well were added back containing DMEM:F12 base medium (Invitrogen) supplemented with 0.5% FCS (HyClone) and 100 ng/ml activin A (R&D Biosystems) and 10 μM test compound. Positive control wells contained the same medium substituting 10-20 ng/ml Wnt3a (R&D Biosystems). Negative control wells contained base medium with 0.5% FCS without activin A or Wnt3a. Screening compounds were tested in triplicate. Wells were aspirated and fed again with identical solutions on day 2 of the assay. On days 3 and 4, all assay wells were aspirated and converted to DMEM:F 12 supplemented with 2% FCS and 100 ng/ml activin A with the exception of negative control wells which were maintained in DMEM:F12 base medium with 2% FCS.
On day 4 of assay, 15-20 μl of MTS (Promega) was added to each well and plates were incubated at 37° C. for 1.5 to 4 hours. Densitometric readings at OD490 were determined using a Molecular Devices spectrophotometer plate reader. Average readings for replicate sets were calculated along with standard deviation and coefficient of variation. Experimental wells were compared to the Activin A/Wnt3a positive control to calculate a percent control value as a measure of proliferation.
Strong hits are defined as greater than or equal to 120% of control values; moderate hits are defined as falling within the interval of 60-120% of control values. A significant number of compounds induce a proliferative response in this assay.

[6] = cell number in the wells analysed for HNF-3b expression
[7] = cell number in the wells analysed for SOX-17 expression

Row | SMILES | viability at 10 µM [1] | Raw data (duplicate), first replicate [1] | Raw data (duplicate), second replicate [1] | Average [1] | Proliferative Response Total cells [2, 6] | Proliferative Response Total cells [2, 7] | HNF-3b Expression Total Intensity [3] | fold induction at 10 µM [4] | SOX-17 Expression Total Intensity [4] | fold induction at 10 µM ([2]; Homo sapiens, Embryonic stem cell, 10 μM test compound with 100 ng/ml activin A on days 1-2, H9, total cell number by IN Cell Analyzer, strong and moderate hits, read-out: Proliferative Response, Fold over Wnt 3a/AA control) | fold induction at 10 µM ([3]; Homo sapiens, Embryonic stem cell, 10 μM test compound with 100 ng/ml activin A on days 1-2, H9, total intensity by IN Cell Analyzer, strong and moderate hits, read-out: HNF3β Expression, Fold over Wnt 3a/AA control) | activity at 10 µM ([5]; Homo sapiens, Embryonic stem cell, 96 h, 10 μM test compound with 100 ng/ml activin A on days 1-2, MTS OD490 on day 4, vs Activin A/Wnt3a positive control, strong and moderate hits) | Average ([5]; average of replicate raw data)
1 | NCCCn1nc(C2=C(c3cn(-c4csc5ccccc45)c4ccccc34)C(=O)NC2=O)c2ccccc21 [Compound 4] | 2.6% | 0.132 | 0.137 | 0.134 | 2776 | 2914 | 125125000 | 0.616 | 230965000 |  |  |  | 
2 | CN(C)CCCn1nc(C2=C(c3cn(-c4cccc5ccccc45)c4ccccc34)C(=O)NC2=O)c2ccccc21 [Compound 8] | 5.2% | 0.165 | 0.154 | 0.159 | 5096 | 5706.5 | 341360000 | 0.853 | 319930000 | 1.01 | 0.743 |  | 
3 | O=C1NC(=O)C(c2nn(CCCO)c3ccccc23)=C1c1cn(-c2ccc3ccccc3c2)c2ncccc12 [Compound 19, 3-[1-(3-Hydroxypropyl)-1H-indazol-3-yl]-4-(1-naphthalen-2-yl-1H-pyrrolo[2,3-b]pyridin-3-yl)-1H-pyrrole-2,5-dione] | 85.2% |  |  |  |  |  | 0 |  |  |  |  |  | 
4 | Cn1cc(C2=C(c3nn(CC(=O)NCCO)c4ccccc34)C(=O)NC2=O)c2cc(Cl)ccc21 [Compound 82, 2-{3-[4-(5-Chloro-1-methyl-1H-indol-3-yl)-2,5-dioxo-2,5-dihydro-1H-pyrrol-3-yl]-1H-indazol-1-yl}-N-(2-hydroxyethyl)acetamide] | 95% | 0.684 | 0.809 | 0.746 |  |  |  |  |  |  |  | 131% | 0.8929
